Experimental data: ChEMBL document CHEMBL6103639, “Structure-Based Development of 3,4-Fused Tricyclic Benzofuran Derivatives as Polyketide Synthase 13 Inhibitors with Negligible hERG Inhibition” (J Med Chem, 2025)
pIC50: −log10 of the molar value.

Assays:
[1] = test system: Mycobacterium tuberculosis; experiment: Antitubercular activity against Mycobacterium tuberculosis H37Rv assessed as reduction in microbial growth by microplate alamar blue assay; type: functional
[2] = biological target: Polyketide synthase Pks13 (Mycobacterium tuberculosis (strain ATCC 25618 / H37Rv)) (UniProt I6X8D2); experiment: Induction of stabilization of Mycobacterium tuberculosis H37Rv Pks-13 TE domain assessed as melting temperature incubated for 30 mins by NanoDSF assay
Polyketide synthase Pks13 (Mycobacterium tuberculosis (strain ATCC 25618 / H37Rv)), sequence (I6X8D2 whole entry, the tested form may be a part): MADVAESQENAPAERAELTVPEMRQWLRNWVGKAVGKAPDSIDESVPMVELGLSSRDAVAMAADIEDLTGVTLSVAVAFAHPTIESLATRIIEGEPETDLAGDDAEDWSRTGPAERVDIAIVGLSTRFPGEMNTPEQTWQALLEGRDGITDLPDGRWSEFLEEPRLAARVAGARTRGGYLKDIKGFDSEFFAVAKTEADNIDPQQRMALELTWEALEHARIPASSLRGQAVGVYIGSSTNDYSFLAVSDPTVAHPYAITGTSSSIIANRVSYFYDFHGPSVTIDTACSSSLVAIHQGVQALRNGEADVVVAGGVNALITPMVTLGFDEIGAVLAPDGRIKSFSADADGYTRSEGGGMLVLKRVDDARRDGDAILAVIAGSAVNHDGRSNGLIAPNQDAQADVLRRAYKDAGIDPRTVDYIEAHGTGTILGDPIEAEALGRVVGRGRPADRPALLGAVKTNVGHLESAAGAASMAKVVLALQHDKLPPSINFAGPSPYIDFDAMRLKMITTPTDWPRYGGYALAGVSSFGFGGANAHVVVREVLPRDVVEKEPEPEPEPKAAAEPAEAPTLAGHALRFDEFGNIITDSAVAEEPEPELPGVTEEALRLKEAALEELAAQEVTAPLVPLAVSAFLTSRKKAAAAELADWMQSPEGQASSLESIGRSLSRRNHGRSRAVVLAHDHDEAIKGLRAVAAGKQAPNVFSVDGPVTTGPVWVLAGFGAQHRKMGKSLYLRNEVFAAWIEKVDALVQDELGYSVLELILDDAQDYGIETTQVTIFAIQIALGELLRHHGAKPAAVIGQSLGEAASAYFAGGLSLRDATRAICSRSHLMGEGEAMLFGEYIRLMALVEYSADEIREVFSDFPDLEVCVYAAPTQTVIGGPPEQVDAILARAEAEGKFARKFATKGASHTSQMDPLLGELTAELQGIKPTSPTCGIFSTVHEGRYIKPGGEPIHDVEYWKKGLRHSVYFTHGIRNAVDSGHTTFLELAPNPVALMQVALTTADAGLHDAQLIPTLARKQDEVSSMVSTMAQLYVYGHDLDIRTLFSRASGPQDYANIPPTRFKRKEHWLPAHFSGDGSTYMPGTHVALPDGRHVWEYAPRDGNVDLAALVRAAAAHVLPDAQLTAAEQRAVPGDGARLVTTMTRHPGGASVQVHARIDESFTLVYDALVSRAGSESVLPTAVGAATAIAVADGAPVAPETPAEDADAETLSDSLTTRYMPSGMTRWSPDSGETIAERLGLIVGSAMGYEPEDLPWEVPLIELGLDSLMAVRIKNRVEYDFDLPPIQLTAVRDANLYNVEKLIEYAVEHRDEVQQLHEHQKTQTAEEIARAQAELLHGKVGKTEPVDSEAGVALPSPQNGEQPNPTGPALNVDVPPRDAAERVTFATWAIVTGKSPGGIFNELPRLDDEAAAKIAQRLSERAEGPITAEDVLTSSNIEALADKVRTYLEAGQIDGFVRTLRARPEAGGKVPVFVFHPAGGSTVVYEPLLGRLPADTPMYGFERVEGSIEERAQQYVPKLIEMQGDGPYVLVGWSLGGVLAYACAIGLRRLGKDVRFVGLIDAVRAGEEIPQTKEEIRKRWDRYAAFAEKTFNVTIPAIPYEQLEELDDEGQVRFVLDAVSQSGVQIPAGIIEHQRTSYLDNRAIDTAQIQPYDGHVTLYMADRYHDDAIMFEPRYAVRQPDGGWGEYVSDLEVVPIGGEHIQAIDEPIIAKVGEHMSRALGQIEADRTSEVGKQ

[3] = biological target: Polyketide synthase Pks13 (Mycobacterium tuberculosis (strain ATCC 25618 / H37Rv)) (UniProt I6X8D2); experiment: Induction of stabilization of Mycobacterium tuberculosis H37Rv Pks-13 TE domain assessed as change in melting temperature incubated for 30 mins by NanoDSF assay
[4] = biological target: Polyketide synthase Pks13 (Mycobacterium tuberculosis (strain ATCC 25618 / H37Rv), UniProt I6X8D2); experiment: Inhibition of Mycobacterium tuberculosis H37Rv Pks-13 TE domain using 4-MUH as fluorogenic substrate incubated for 90 mins by fluorescence based analysis
Polyketide synthase Pks13, sequence (I6X8D2 whole entry, the tested form may be a part): as above

[5] = biological target: Voltage-gated inwardly rectifying potassium channel KCNH2 (Homo sapiens, UniProt Q12809); experiment: Inhibition of human ERG expressed in CHO cells incubated for 2.5 mins by Q-patch-clamp electrophysiological analysis; type: toxicity, cell-based
Voltage-gated inwardly rectifying potassium channel KCNH2, sequence (Q12809 whole entry): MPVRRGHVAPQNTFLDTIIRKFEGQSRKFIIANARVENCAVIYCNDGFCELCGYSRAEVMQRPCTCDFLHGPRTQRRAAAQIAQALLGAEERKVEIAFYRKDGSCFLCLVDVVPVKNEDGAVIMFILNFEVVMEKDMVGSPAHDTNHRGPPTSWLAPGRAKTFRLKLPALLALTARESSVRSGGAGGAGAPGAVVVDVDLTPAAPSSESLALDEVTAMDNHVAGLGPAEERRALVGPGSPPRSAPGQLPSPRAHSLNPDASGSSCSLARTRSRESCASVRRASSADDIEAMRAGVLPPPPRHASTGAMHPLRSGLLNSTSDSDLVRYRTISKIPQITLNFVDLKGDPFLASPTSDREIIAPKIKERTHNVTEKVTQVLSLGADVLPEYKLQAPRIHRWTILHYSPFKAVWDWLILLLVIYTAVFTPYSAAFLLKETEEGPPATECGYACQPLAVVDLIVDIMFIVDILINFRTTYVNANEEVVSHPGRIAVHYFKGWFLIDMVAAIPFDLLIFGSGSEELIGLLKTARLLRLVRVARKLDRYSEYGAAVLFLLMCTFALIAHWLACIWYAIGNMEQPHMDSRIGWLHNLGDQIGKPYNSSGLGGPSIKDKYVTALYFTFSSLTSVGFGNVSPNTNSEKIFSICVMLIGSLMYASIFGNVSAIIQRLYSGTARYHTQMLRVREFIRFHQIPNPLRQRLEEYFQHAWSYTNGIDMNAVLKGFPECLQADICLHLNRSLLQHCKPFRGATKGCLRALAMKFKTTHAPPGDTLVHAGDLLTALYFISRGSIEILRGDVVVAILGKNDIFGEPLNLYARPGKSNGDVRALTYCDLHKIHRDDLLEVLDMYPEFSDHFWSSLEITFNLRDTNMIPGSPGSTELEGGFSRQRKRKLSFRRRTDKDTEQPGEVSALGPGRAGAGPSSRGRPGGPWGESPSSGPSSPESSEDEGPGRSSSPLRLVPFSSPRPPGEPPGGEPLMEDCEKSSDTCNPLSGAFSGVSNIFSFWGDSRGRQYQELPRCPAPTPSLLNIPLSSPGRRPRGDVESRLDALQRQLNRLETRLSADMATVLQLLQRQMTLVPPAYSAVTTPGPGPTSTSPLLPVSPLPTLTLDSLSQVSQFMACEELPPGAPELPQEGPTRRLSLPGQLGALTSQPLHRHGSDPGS

[6] = Metabolic stability in human liver microsomes assessed as half life at 0.1 uM measured upto 60 mins by LC/MS-MS analysis; type: ADME, Microsome
[7] = Metabolic stability in human liver microsomes assessed as intrinsic clearance at 0.1 uM measured upto 60 mins by LC/MS-MS analysis; type: ADME, Microsome; conditions: read-out: CLH
[8] = Metabolic stability in human liver microsomes assessed as parent compound remaining at 0.1 uM incubated for 60 mins by LC/MS-MS analysis; type: ADME, Microsome; conditions: read-out: Stability
[9] = test system: Mycobacterium tuberculosis; experiment: Antitubercular activity against Mycobacterium tuberculosis H37Rv assessed as reduction in microbial growth incubated for 6 days by microplate alamar blue assay; type: functional; conditions: 144 h, time 6 day

| SMILES | MIC [1] [mg/L] | other results |
| --- | --- | --- |
| CN1CN(C2CCC2)Cc2c(O)ccc3oc(-c4ccc(O)cc4)c(c23)C1=O | 0.125 | – |
| CC1c2c(O)ccc3c2c(cn3-c2ccccc2)CCN1CC1CC1 (stereo unspecified) | 16 | – |
| CN1CN(C2CCCC2)Cc2c(O)ccc3oc(-c4ccc(O)cc4)c(c23)C1=O | 0.125 | Tm [2]: 66 °C; ΔTm [3]: 7 °C; pIC50 [4]: 5.23; pIC50 [5]: < 4.00; half-life at 0.1 µM [6]: 28.9 min; microsomal CLint at 0.1 µM [7]: 48 µL/min/mg; remaining at 1 h, 0.1 µM [8]: 23.3% |
| O=c1oc2cc(O)ccc2c2oc3ccc(O)c(CN4CCCCC4)c3c12 | – | pIC50 [5]: 6.28 |
| CN1CN(CCC2CC2)Cc2c(O)ccc3oc(-c4ccc(O)cc4)c(c23)C1=O | 0.25 | – |
| CN1CN(C2CCC2)Cc2c(O)ccc3c2c(cn3-c2ccc(Br)cc2)C1=O | 8 | – |
| CN1CN(CC2CCC2)Cc2c(O)ccc3c2c(cn3-c2ccc(Br)cc2)C1=O | 8 | – |
| CC1c2c(O)ccc3c2c(cn3-c2ccccc2)CCN1C1CCC1 (stereo unspecified) | 16 | – |
| CN1CN(CC2CC2)Cc2c(O)ccc3c2c(cn3-c2ccc(Br)cc2)C1=O | 8 | – |
| O=C(O)Cc1ccccc1Nc1c(Cl)cccc1Cl [DICLOFENAC] | – | microsomal CLint at 0.1 µM [7]: 248 µL/min/mg |
| CC(C)CN1Cc2c(O)ccc3oc(-c4ccc(O)cc4)c(c23)C(=O)N(C)C1 | 0.062 | – |
| CC1c2c(O)ccc3c2c(cn3-c2ccc(Br)cc2)CCN1CC1CC1 (stereo unspecified) | 8 | – |
| CC1c2c(O)ccc3c2c(cn3-c2ccccc2)CCN1CC1CCC1 (stereo unspecified) | 8 | – |
| CNC(=O)c1c(-c2ccc(O)cc2)oc2ccc(O)c(CN3CCCCC3)c12 | – | Tm [2]: 67.4 °C; ΔTm [3]: 8.4 °C |
| O=C1NCN(C2CCCC2)Cc2c(O)ccc3oc(-c4ccc(O)cc4)c1c23 | 0.5 | – |
| Oc1ccc2c3c(cn2-c2ccc(Br)cc2)CCN(C2CCC2)Cc13 | 16 | – |
| COc1cccc(-c2oc3ccc(O)c4c3c2C(=O)N(C)CN(CC2CCC2)C4)c1 | 4 | – |
| CN1CN(CC2CCC2)Cc2c(O)ccc3oc(-c4cccc(O)c4)c(c23)C1=O | 0.125 | – |
| CN1CN(CC2CCCC2)Cc2c(O)ccc3oc(-c4ccc(O)cc4)c(c23)C1=O | 2 | – |
| CC1c2c(O)ccc3c2c(cn3-c2ccc(Br)cc2)CCN1C1CCC1 (stereo unspecified) | 8 | – |
| CN1CN(CC2CCC2)Cc2c(O)ccc3oc(-c4ccccc4)c(c23)C1=O | 0.5 | – |

| SMILES | MIC [1] [mg/L] | other results |
| --- | --- | --- |
| CN1CN(CC2CCC2)Cc2c(O)ccc3oc(-c4ccc(F)cc4)c(c23)C1=O | 2 | – |
| Oc1ccc2c3c(cn2-c2ccc(Br)cc2)CCN(CC2CCC2)Cc13 | 8 | half-life at 0.1 µM [6]: 51.5 min; microsomal CLint at 0.1 µM [7]: 26.9 µL/min/mg; remaining at 1 h, 0.1 µM [8]: 44.1% |
| C[C@]12CC[C@H]3[C@@H](CCC4=CC(=O)CC[C@@]43C)[C@@H]1CC[C@@H]2O [TESTOSTERONE] | – | remaining at 1 h, 0.1 µM [8]: 4.1% |
| CN1CN(CC2CCC2)Cc2c(O)ccc3oc(-c4ccc(O)cc4)c(c23)C1=O | 0.016 | Tm [2]: 65.8 °C; ΔTm [3]: 6.8 °C; pIC50 [4]: 5.68; pIC50 [5]: < 4.00; half-life at 0.1 µM [6]: 17.7 min; microsomal CLint at 0.1 µM [7]: 78.2 µL/min/mg; remaining at 1 h, 0.1 µM [8]: 8.2% |
| CN1CN(CCCC2CCCCC2)Cc2c(O)ccc3oc(-c4ccc(O)cc4)c(c23)C1=O | > 64 | – |
| CN1CN(C2CCCCC2)Cc2c(O)ccc3oc(-c4ccc(O)cc4)c(c23)C1=O | 8 | – |
| CN1CN(CC2CC2)Cc2c(O)ccc3oc(-c4ccc(O)cc4)c(c23)C1=O | 0.031 | pIC50 [5]: < 4.00 |
| CC1c2c(O)ccc3c2c(cn3-c2ccc(Br)cc2)CCN1CC1CCC1 (stereo unspecified) | 8 | – |
| CCOC(=O)c1c(NC(=O)c2c(F)c(F)c(F)c(F)c2F)sc2c1CCN(CC)C2 | – | MIC [9]: 0.23 µM |
| CC1c2c(O)ccc3c2c(cn3-c2ccc(Br)cc2)C(=O)CN1CC1CC1 (stereo unspecified) | 32 | – |
| CC1c2c(O)ccc3c2c(cn3-c2ccc(Br)cc2)C(=O)CN1C1CCC1 (stereo unspecified) | 64 | – |
| Oc1ccc2c3c(cn2-c2ccc(Br)cc2)CCN(CC2CC2)Cc13 | 16 | – |
| COc1ccc2oc(-c3ccc(O)cc3)c3c2c1CN(CC1CCC1)CN(C)C3=O | 64 | – |
| CC(C)CCN1Cc2c(O)ccc3oc(-c4ccc(O)cc4)c(c23)C(=O)N(C)C1 | 0.25 | – |
| COc1ccc(-c2oc3ccc(OC)c4c3c2C(=O)N(C)CN(CC2CCC2)C4)cc1 | 64 | – |
| CC1c2c(O)ccc3c2c(cn3-c2ccc(Br)cc2)C(=O)CN1CC1CCC1 (stereo unspecified) | > 64 | – |
| COc1ccc(-c2oc3ccc(O)c4c3c2C(=O)N(C)CN(CC2CCC2)C4)cc1 | 0.25 | – |
| CN1CN(CC2CCCCC2)Cc2c(O)ccc3oc(-c4ccc(O)cc4)c(c23)C1=O | 16 | – |
| CC(=O)c1c(C)n(-c2ccc(Br)cc2)c2ccc(O)c(CN3CCCCC3)c12 | 0.125 | – |
| CN1CN(C2CCCC2)Cc2c(O)ccc3c2c(cn3-c2ccc(Br)cc2)C1=O | 1 | – |
| CN1CN(CC2CCCC2)Cc2c(O)ccc3c2c(cn3-c2ccc(Br)cc2)C1=O | > 64 | – |
